Measured values taken from BigSolDB 2.1.

CC1(C)NC(=O)NC1=O
solubility (mole fraction)
Conditions | 283.15 K | 288.15 K | 293.15 K | 298.15 K | 303.15 K | 308.15 K | 313.15 K | 318.15 K | 323.15 K
in acetonitrile | 0.0123 | 0.0144 | 0.017 | 0.0196 | 0.0227 | 0.026 | 0.0294 | 0.0345 | 0.039
in ethanol | 0.0412 | 0.0465 | 0.0526 | 0.0592 | 0.0672 | 0.0757 | 0.0846 | 0.0961 | 0.108
in ethyl acetate | 0.0118 | 0.0133 | 0.0154 | 0.0175 | 0.0191 | 0.0213 | 0.0236 | 0.026 | 0.0289
in isobutanol | 0.0242 | 0.0284 | 0.0328 | 0.038 | 0.0439 | 0.0509 | 0.0577 | 0.0672 | 0.0757
in isopropanol | 0.0366 | 0.042 | 0.0481 | 0.0554 | 0.063 | 0.0714 | 0.0803 | 0.0914 | 0.102
in methanol | 0.0647 | 0.0719 | 0.0806 | 0.0896 | 0.0993 | 0.111 | 0.122 | 0.135 | 0.15
in n-butanol | 0.026 | 0.0296 | 0.0338 | 0.0389 | 0.0447 | 0.0509 | 0.0574 | 0.0661 | 0.0737
in n-pentanol | 0.0236 | 0.0267 | 0.0305 | 0.0348 | 0.0398 | 0.0453 | 0.0514 | 0.0583 | 0.0641
in n-propanol | 0.0326 | 0.0373 | 0.0424 | 0.0476 | 0.0543 | 0.0616 | 0.0687 | 0.0788 | 0.0881
in n-propyl acetate | 0.00923 | 0.0105 | 0.0118 | 0.0138 | 0.0155 | 0.0172 | 0.0193 | 0.0215 | 0.0234
in sec-butanol | 0.0384 | 0.0449 | 0.0505 | 0.058 | 0.0655 | 0.074 | 0.083 | 0.093 | 0.105
in water | 0.0163 | 0.0186 | 0.0213 | 0.0242 | 0.0279 | 0.0326 | 0.038 | 0.0458 | 0.0532
